How the values were obtained:
[1] = biological target: human fibroblast stromelysin (Homo sapiens, UniProt P08254); test: Assay for inhibition of stromelysin (fluorescein-labeled casein substrate); type: biochemical; settings: plasmin-activated human fibroblast prostromelysin, 37°C, 2 hours, pH 7.8; read-out: Inhibition of MMP-3
[2] = Assay for Oral Absorption in Rat (plasma level by MMP-3 inhibition bioassay); settings: rat, po, 100 mg/kg; for AUC: male, Lewis
Protocol: Each compound of the present invention was dissolved in distilled water for injection and orally administered to rats (Lewis strain line, male, body weight: about 200 g) at a dose of 100mg/kg. From 30 minutes to 4 hours after the administration, a series of blood chronologically collected from rat fundus oculi were centrifuged (3000rpm for 10 minutes at 4°C) to give plasma samples. Each plasma sample (200 µl) was filtered through an ultrafiltration membrane by centrifugation at 1500 x G for 3 minutes using a micropartition UF unit (Centrifree-MPS-3: 30,000 MW cut-off, Amicon Corp., Beverly, MA). […] The reaction was stopped by adding 900 µl of 3% aqueous acetic acid to the reaction mixture. The fluorescence of the resulting solution was read using an excitation wavelength of 325 nm and an emission wavelength of 393 nm. The concentration of each test compound in rat plasma samples was calculated using a standard curve which was prepared based on a variety of doses.

[3] = biological target: TNF-α Convertase (Homo sapiens, UniProt P78536); test: Assay for inhibition of TNF-α production in LPS-stimulated, PMA-differentiated U937 cells
TNF-α Convertase, sequence (P78536 215-824): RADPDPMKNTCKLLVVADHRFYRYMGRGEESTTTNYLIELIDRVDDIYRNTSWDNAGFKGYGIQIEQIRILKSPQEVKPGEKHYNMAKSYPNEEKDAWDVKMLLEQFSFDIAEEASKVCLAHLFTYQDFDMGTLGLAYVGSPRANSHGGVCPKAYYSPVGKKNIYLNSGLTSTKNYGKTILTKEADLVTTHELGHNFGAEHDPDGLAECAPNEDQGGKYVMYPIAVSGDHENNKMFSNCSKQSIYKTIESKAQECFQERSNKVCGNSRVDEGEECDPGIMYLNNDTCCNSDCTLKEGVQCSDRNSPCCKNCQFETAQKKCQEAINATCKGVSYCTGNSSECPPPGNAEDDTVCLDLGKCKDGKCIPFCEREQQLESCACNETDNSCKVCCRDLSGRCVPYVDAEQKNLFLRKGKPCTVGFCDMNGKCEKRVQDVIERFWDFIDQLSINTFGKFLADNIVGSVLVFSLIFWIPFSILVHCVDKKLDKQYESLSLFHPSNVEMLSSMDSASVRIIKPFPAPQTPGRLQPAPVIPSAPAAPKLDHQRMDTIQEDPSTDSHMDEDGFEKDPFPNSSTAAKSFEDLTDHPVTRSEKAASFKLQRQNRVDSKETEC
Protocol: Human monocytic leukemia cell line U937 (human histiocytic lymphoma cell line U937) cells were cultured in RPMI 1640 (Nissui Pharmaceutical Co., Ltd., Japan) supplemented with 5% fetal calf serum (FCS; IBL, Japan) in an incubator at 37°C under 5% CO2, then transferred to multiplates at a density of 1 x 10^6 cells/1 ml/well, and incubated overnight in the presence of 10^-7 M phorbol 12-myristate 13-acetate (Wako Pure Chemical Industries, Ltd., Japan) to form differentiated macrophage-like cells. To the resultant cells was added E. coli O127:B8 lipopolysaccaride (LPS, 0.1 µg/ml; Sigma) alone or along with each compound of the present invention, and the treated cells were then incubated for 6 hours in an incubator under 5% CO2 at 37°C. After the incubation, the cultures were collected and centrifuged at 3000 rpm for 10 minutes to give supernatants which were diluted with purified water and then assayed using a TNF-α assay kit, Genzyme (Table 3).

[4] = biological target: T1, human fibroblast collagenase (Homo sapiens, UniProt P03956); test: Assay for inhibition of collagenase (fluorescein-labeled bovine type I collagen substrate); type: biochemical; settings: activated human fibroblast procollagenase, 35°C, 2 hours, pH 7.5; read-out: Inhibition of MMP-1
T1 sequence (P03956 100-469): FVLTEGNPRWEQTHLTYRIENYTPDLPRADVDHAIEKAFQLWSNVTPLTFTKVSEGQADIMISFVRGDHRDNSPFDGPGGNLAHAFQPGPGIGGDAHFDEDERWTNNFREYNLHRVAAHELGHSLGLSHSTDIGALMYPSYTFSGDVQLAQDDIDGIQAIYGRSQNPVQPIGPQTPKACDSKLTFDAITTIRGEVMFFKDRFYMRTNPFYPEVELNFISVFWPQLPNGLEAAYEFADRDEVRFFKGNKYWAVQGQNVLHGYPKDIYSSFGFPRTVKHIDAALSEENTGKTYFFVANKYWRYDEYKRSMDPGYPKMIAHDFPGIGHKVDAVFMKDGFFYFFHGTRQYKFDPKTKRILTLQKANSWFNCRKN

human fibroblast stromelysin, sequence (P08254 100-477): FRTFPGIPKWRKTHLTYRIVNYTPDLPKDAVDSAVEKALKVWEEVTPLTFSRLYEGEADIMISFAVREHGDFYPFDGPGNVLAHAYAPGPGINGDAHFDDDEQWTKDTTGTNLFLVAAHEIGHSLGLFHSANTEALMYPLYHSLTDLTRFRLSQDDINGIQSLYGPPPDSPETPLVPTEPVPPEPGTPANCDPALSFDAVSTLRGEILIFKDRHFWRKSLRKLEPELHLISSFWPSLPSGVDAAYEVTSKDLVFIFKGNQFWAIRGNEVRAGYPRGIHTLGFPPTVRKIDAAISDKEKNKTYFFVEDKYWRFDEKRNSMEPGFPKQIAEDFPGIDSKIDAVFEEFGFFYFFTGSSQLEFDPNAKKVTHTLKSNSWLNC

`CNC(=O)C(Cc1ccc(CNC(C)=N)cc1)NC(=O)C(CC(C)C)C(C)C(=O)NO` (single isomer, unassigned) [Compound No. 41, N^a-[4-(Hydroxyamino)-2(R)-isobutyl-3(R or S)-methylsuccinyl]-4'-acetimidoyliminomethyl-L-phenylalanine N-methylamide · 1 acetate] showed an IC50 [1] of 18 nM, an AUC [2] of 3130 ng·h/mL and an IC50 [3] of 1010 nM.
`CNC(=O)C(CCCCNC(C)=N)NC(=O)C(CC(C)C)C(C)C(=O)NO` [Compound No. 22, N^a-[4-(Hydroxyamino)-2(R)-isobutyl-3(RS)-methylsuccinyl]-N^e-acetimidoyl-L-lysine N-methylamide · 1 acetate] gave an AUC at 4 h [2] of 9130 ng·h/mL and an IC50 [3] of 2080 nM.
With `CNC(=O)C(CCCN)NC(=O)C(CC(C)C)C(CCCc1ccc(NC(=N)N)cc1)C(=O)NO` [Compound No. 46, N^a-[4-(Hydroxyamino)-2(R)-isobutyl-3(RS)-[3-(4'-guanidinophenyl)propyl]succinyl]-L-ornithine-N-methylamide · 2 acetate] the IC50 [4] was 15 nM, the IC50 [1] was 42 nM and the AUC [2] was 3380 ng·h/mL. The IC50 [3] was 460 nM.

— patent EP1038864A1, “NOVEL METALLOPROTEINASE INHIBITORS” (FUJI YAKUHIN KOGYO KABUSHIKI KAISHA, priority 1997, dated 1999)
